Measured values as given in patent US20200165194A1, “ADDITIVE COMPOSITION FOR CULTURE MEDIUM, ADDITIVE COMPOUND FOR CULTURE MEDIUM, AND METHOD FOR CULTURE OF CELLS OR TISSUE USING SAME” (NISSAN CHEMICAL CORPORATION, priority 2017, published 2020).
Read-outs that look alike come from different tables or passages of the source.

Experiments:
Format in all cases: cell-based
[1] = test system: Bone marrow-derived human mesenchymal stem cells (BM-hMSC); experiment: Human mesenchymal stem cell-2: 3D, EZSPHERE and 2D culture, ATP assay (Experimental Example 10); conditions: for viability at 1 µM / viability at 5 µM / viability at 10 µM / viability at 20 µM: Homo sapiens, Mesenchymal stem cells, 96 h, BM-hMSC, 4 days, non-addition = 100%, read-out: relative value of RLU (number of viable cells); for proliferation activity (in words): three-dimensional cell culture conditions
Description: Bone marrow-derived human mesenchymal stem cells (BM-hMSC, manufactured by PromoCell) were precultured by a single layer culture method (2D) using a mesenchymal stem cell proliferation medium (manufactured by PromoCell). In three-dimensional culture method (3D), hMSC was suspended in a medium composition added with deacylated gellan gum, and seeded in a […] flat bottom Ultr-low Attachment surface plate (manufactured by Corning Incorporated, #3474) at 6000 cells/90 μL/well. In the three-dimensional culture method using EZSPHERE (EZSPHERE), hMSC was suspended in a deacylated gellan gum-free medium composition, and seeded in a 96-well EZSPHERE plate (manufactured by AGC TECHNO GLASS CO., LTD., #4860-900) at 2000 cells/90 μL/well. In 2D, hMSC was suspended in a deacylated gellan gum-free medium composition, and seeded in a 96-well flat bottom plate (manufactured by Corning Incorporated, #3585) at 2000 cells/90 μL/well. […] As a control, DMSO was added at a final concentration of 0.1%.

[2] = test system: a plurality of cancer cell lines; experiment: Various human cancer cells-2, summary over the cell lines (Experimental Example 6); conditions: cancer cell lines under three-dimensional conditions
Description: Various human-derived cancer cells were precultured (single layer culture) in respective media shown below. […] The above-mentioned cells in the logarithmic growth phase were washed with PBS, a 0.25 w/v % trypsin-1 mmol/L EDTA (ethylenediaminetetraacetic acid) solution (manufactured by Wako Pure Chemical Industries, Ltd.) was added, and adherent cells were detached by incubating at 37° C. for 1-5 min. Each medium was added and the mixture was centrifuged. After resuspension in the same medium, each cell was recovered.
(§1) The aforementioned various cells were suspended in respective deacylated gellan gum-containing or not containing media (deacylated gellan gum concentration was 0.015 w/v %), and seeded in a 96 well low attachment U-bottom plate (manufactured by Corning, #4520, deacylated gellan gum-free medium), or a low attachment flat bottom plate (manufactured by Corning, #3474, deacylated gellan gum-containing medium) at a cell concentration of 700-12000 cells/90 μL/well (all 3D culture). […] The amount of each compound solution to be added was 10 μL/well. As a control, a DMSO solution dissolved in a medium was added (DMSO final concentration 0.1%). […] When compared with the compound no-addition (control), one showing a value of not more than 119% as -, one showing a value of not less than 120% as ◯, and one showing a value of not less than 150% as ⊚ are shown in the eleventh table and the twelfth table. Unperformed test is left blank.

[3] = test system: Mouse embryonic fibroblast C3H10T1/2; experiment: Fibroblast strain C3H10T1/2, 3D culture, ATP assay (Experimental Example 11); conditions: for proliferation activity (in words): fibroblast under three-dimensional conditions
Description: Mouse embryonic fibroblast C3H10T1/2 (manufactured by DS PHARMA BIO MEDICAL) was cultured in a BME medium (manufactured by Thermo Fisher Scientific) containing 10 (v/v) % FBS (manufactured by Corning) and the L-glutamine-penicillin-streptomycin stabilizing solution (manufactured by Sigma-Aldrich). The above-mentioned cells in the logarithmic growth phase were washed with PBS, a 0.25 w/v % trypsin-1 mmol/L EDTA (ethylenediaminetetraacetic acid) solution (manufactured by Wako Pure Chemical Industries, Ltd.) was added, and the cells were detached by incubating at 37° C. for 3 min. Each medium was added, the mixture was centrifuged, and the supernatant was removed.
as §1, with “gum-free” for “gum-free medium), or a low attachment flat bottom plate (manufactured by Corning, #3474, deacylated gellan gum-containing”, “700-2000” for “700-12000”, “(3D” for “(all 3D”, “eighteenth” for “eleventh table and the twelfth”

[4] = test system: Cercopithecus aethiops kidney epithelium-derived cell line Vero; experiment: Animal cell lines, 3D culture, ATP assay (Experimental Example 15); conditions: 4 days
From the text: (§2) Various animal cell lines were precultured (single layer culture) as follows in respective media. Chinese hamster ovary-derived cell line CHO-K1 (manufactured by DS PHARMA BIO MEDICAL, 10% fetal bovine serum (FBS, manufactured by Corning)-containing Ham's F-12 medium (manufactured by Fujifilm Wako Pure Chemical Corporation)), Cercopithecus aethiops kidney epithelium-derived cell line Vero (purchased from JCRB cell bank, 5% FBS-containing Medium 199 medium (manufactured by Life Technologies)). The above-mentioned cells in the logarithmic growth phase were washed with PBS, a 0.25 w/v % trypsin-1 mmol/L EDTA (ethylenediaminetetraacetic acid) solution (manufactured by Fujifilm Wako Pure Chemical Corporation) was added, and adherent cells were detached by incubating at 37° C. for 3 min. Each medium was added and the mixture was centrifuged and resuspended in the same medium.
(§3) The aforementioned various animal cells were suspended in respective deacylated gellan gum-containing or not containing media (deacylated gellan gum concentration was 0.02 w/v % in Ham's F-12 medium, 0.015 w/v % in Medium 199 medium), and seeded in a 96 well low attachment U-bottom plate (manufactured by Corning, #4520, deacylated gellan gum-free medium), or a low attachment flat bottom plate (manufactured by Corning, #3474, deacylated gellan gum-containing medium) at a cell concentration of 700-2000 cells/90 μL/well (all 3D culture). […] The amount of each compound solution to be added was […]. As a control, a DMSO solution dissolved in a medium was added (DMSO final concentration 0.1%). […] When compared with the compound non-addition (control), one showing a value of not more than 119% as -, one showing a value of not less than 120% as ◯, and one showing a value of not less than 150% as ⊚ are shown in the twenty-third table and the twenty-fourth table.

plural animal cell lines = experiment: Animal cell lines, summary over the cell lines (Experimental Example 15); conditions: animal cell lines under three-dimensional conditions
From the text: as §2, §3

[5] = Mus musculus, C3H 10T1/2, 96 h, C3H10T1/2, low attachment U-bottom plate, 4 days, read-out: number of viable cells (RLU), relative value to control (100%)
[6] = low attachment U-bottom plate, 10 μM

Row | SMILES | viability at 1 µM ([1]; 2D) | viability at 5 µM ([1]; 2D) | viability at 10 µM ([1]; 2D) | viability at 20 µM ([1]; 2D) | viability at 1 µM ([1]; 3D (deacylated gellan gum)) | viability at 5 µM ([1]; 3D (deacylated gellan gum)) | viability at 10 µM ([1]; 3D (deacylated gellan gum)) | viability at 20 µM ([1]; 3D (deacylated gellan gum)) | viability at 1 µM ([1]; EZSPHERE plate) | viability at 5 µM ([1]; EZSPHERE plate) | viability at 10 µM ([1]; EZSPHERE plate) | viability at 20 µM ([1]; EZSPHERE plate) | proliferation activity (in words) [1] | proliferation activity (in words) [2] | viability at 1 µM [3, 5] | proliferation activity (in words) [3] | number of viable cells (RLU), relative value to control (100%) [4, 6] | proliferation activity (in words) (plural animal cell lines) | also measured
1 | CC/C(=N\NC(=O)NCc1ccccc1)c1ccc(O)c(C)c1O [k-1:I-1] | 107% | 98% | 104% | 107% | 100% | 123% | 150% | 177% | 101% | 120% | 144% | 163% | promoted proliferation activity of BM-hMSC | promoted proliferation activity in a plurality of cancer cell lines | > 120% | promoted proliferation activity in fibroblast | ⊙ | promoted proliferation activity in plural animal cell lines | viability at 5 µM ([3]; Mus musculus, C3H 10T1/2, 96 h, C3H10T1/2, low attachment U-bottom plate, 5 μM, 4 days, read-out: number of viable cells (RLU), relative value to control (100%)): > 120%; viability at 5 µM ([4]; Chlorocebus sabaeus, 96 h, low attachment U-bottom plate, 5 μM, read-out: number of viable cells (RLU), relative value to control (100%)): > 120%; viability at 5 µM ([4]; Chlorocebus sabaeus, 96 h, low attachment flat bottom plate (deacylated gellan gum-containing medium), 5 μM, read-out: number of viable cells (RLU), relative value to control (100%)): < 119%; viability at 10 µM ([4]; Chlorocebus sabaeus, 96 h, low attachment flat bottom plate (deacylated gellan gum-containing medium), 10 μM, read-out: number of viable cells (RLU), relative value to control (100%)): < 119%
2 | CC/C(=N\NC(=O)CNc1cccc(O)c1)c1ccc(O)c(C)c1O [k-1:D-1] | 111% | 125% | 112% | 92% | 170% | 640% | 771% | 688% | 169% | 310% | 339% | 275% | promoted proliferation activity of BM-hMSC | promoted proliferation activity in a plurality of cancer cell lines | > 120% | promoted proliferation activity in fibroblast | ⊙ | promoted proliferation activity in plural animal cell lines | number of viable cells (RLU), relative value to control (100%) ([4]; low attachment U-bottom plate, 5 μM): ⊙; number of viable cells (RLU), relative value to control (100%) ([4]; low attachment flat bottom plate (deacylated gellan gum-containing medium), 5 μM): ⊙; number of viable cells (RLU), relative value to control (100%) ([4]; low attachment flat bottom plate (deacylated gellan gum-containing medium), 10 μM): ⊙
